Test results published in patent US11701315B2, “High energy visible light filter systems with yellowness index values” (High Performance Optics, Inc., priority 2006, dated 2023).

Tests used:
[1] = in methanol, cited from earlier work
[2] = Transmission and absorption properties stated in the text for known lenses and dyes; assay type: physicochemical

Row | SMILES | maximum of excitation spectrum ([1]; monitored at 600 nm emission) | major peak of absorbance spectrum [1] | absorption maximum [2]
1 | CC1=C(/C=C/C(C)=C/C=C/C(C)=C/c2cc(/C=C/C=C(C)/C=C/C3=C(C)CCCC3(C)C)cc[n+]2CCO)C(C)(C)CCC1 [A2E] | 418 nm | 435 nm | –
2 | c1cc2cccc3c4cccc5cccc(c(c1)c23)c54 [perylene] | – | – | 437 nm
